Results published in patent US20240285627A1, “DRUG COMBINATION OF FAK INHIBITOR AND IMMUNOGENIC CELL DEATH INDUCER AND USE THEREOF” (INXMED (NANJING) CO., LTD., priority 2022, published 2024).
Several values for one entry are separate records, joined by “and”; a condition that tells them apart may be missing. Identical values can stand only once.

Assays:
[1] = tested on: Mouse colon cancer CT26 cells; experiment: CT26 cells with IN10018 and MRTX1133: microscope and flow cytometry for CRT / Annexin V (Example 4); type: cell-based; settings: CT26, 48 hours; IN10018 5 μM, MRTX1133 6 μM
Method: (§1) Mouse colon cancer CT26 cells (Insitute of Biochemistry and Cell Biology) were cultured with RPMI-1640 (Shanghai Basalmedia, classification number: L210KJ, batch number: F210916)+10% FBS (Gibco, classification number: 10099-141c, batch number: 2158737cp) and passaged twice. When the cells were in good condition, the culture solution was placed in a 24-well plate. After the cells were spread for 24 hours, four groups were set up, wherein the first group was a control group, and the culture medium was added; the second group was IN10018 with a concentration of 5 μM; the third group was MRTX1133 (SuperLan Chemical Co., Ltd., classification number: P2621928-55-8, batch number: 131005) with a concentration of 6 μM; and the fourth group was IN10018 (5 μM) combined with MRTX1133 (6 μM). The drugs were mixed and the mixture was cultured in a 5% CO2 incubator at 37° C. for 48 hours.
(§2) After 48 hours of drug action, the cells were observed under a microscope and photographed, and the photos were kept. Then the cells were collected, subjected to flow analysis, and washed twice with flow buffer (PBS+2% FBS). 0.5 μl of AF647 anti-Calreticulin antibody (abcam, classification number: ab196159, batch number: CR33676773) was added to each well and fully mixed. […] The mixture was cultured at room temperature in the dark for 15 minutes, and then analyzed by flow cytometry.

Mouse lung cancer KPL = experiment: KPL cells with IN10018 and MRTX1133: microscope and flow cytometry for CRT / Annexin V (Example 6); type: cell-based; settings: 48 hours, IN10018 10 μM, MRTX1133 15 μM
Method: as §1, with “Mouse lung” for “Mouse colon”, “cancer KPL” for “cancer CT26 cells”, “of 10” for “of 5”, “of 15” for “of 6”, “IN10018 (10” for “IN10018 (5”, “MRTX1133 (15” for “MRTX1133 (6”
as §2

[2] = Weight change, survival and clinical status in the CT26 allograft model (Example 9); type: in vivo
Method: The health status and death of animals was monitored every day. Routine examination included observing the effects of tumor growth and drug treatment on the daily behavior of animals, such as behavioral activities, food and water intake (visual observation only), body weight change, appearance signs or other abnormal conditions. Based on the number of animals in each group, the death number and side effects of animals in the group were recorded.
The assay was carried out according to the administration scheme. During the assay, animal activities such as eating and drinking were observed daily, and animal weight was recorded 2˜3 times a week. […] The body weight of the three-drug combined group of MRTX1133+IN10018+TIGIT (5+25+3 mg/kg) group changed from 19.5 g on the day of group administration (Day 0) to 21.2 g on the 16th day, and the change rate of body weight was […].

[3] = tested on: mouse colon cancer CT26 cells allograft tumor; experiment: In vivo anti-tumor efficacy, BALB/c mouse subcutaneous allograft tumor model of CT26 cells (Example 9)
Method: Mouse colorectal cancer cell CT26 (from Nanjing Kebai Biotechnology Co., Ltd., article number: CBP60043) was maintained and passaged by InxMed (Nanjing) Co., Ltd. Cells were cultured in monolayer in vitro, and the culture conditions were RPMI-1640 medium with 10% fetal bovine serum and 37° C. 5% CO2 incubator. Trypsin-EDTA was used for routine digestion and passage two or three times a week. When the cells were in exponential growth period and the saturation reached 80%-90%, the cells were collected, counted and inoculated.
0.1 mL of cell suspension containing 3×10^5 cells was subcutaneously inoculated on the right back of each mouse. When the tumor volume reached about ˜57 mm^3 (13th day after cell inoculation), mice were randomly divided into groups according to the tumor volume and administered.
The assay index was to investigate whether the tumor growth is inhibited, delayed or cured. The diameter of tumor was measured with vernier caliper, 2˜3 times a week. The formula for calculating the tumor volume is: V=0.5×a×b^2, where a and b represent the long and short diameters of the tumor respectively.
The anti-tumor effect of the compound was evaluated by TGI (%), which reflected the tumor growth inhibition rate. According to the tumor volume on the first day after grouping, the tumor growth inhibition rate TGI (%) was calculated according to the following formula: […]
Statistical analysis was based on the tumor volume at the end of the assay and analyzed by Prism Graphpad software. The comparison between multiple groups was analyzed by Two-way ANOVA and Fisher's LSD test. P<0.05 is considered to have significant difference.

COc1cc(C(=O)NC2CCN(C)CC2)c(F)cc1Nc1ncc(C(F)(F)F)c(Oc2cccc3c2C(=O)N(C)C3)n1 [IN10018]
cell state under a microscope [1]: good
cell state under a microscope (Mouse lung cancer KPL): good

C#Cc1c(F)ccc2cc(O)cc(-c3ncc4c(N5CC6CCC(C5)N6)nc(OC[C@@]56CCCN5C[C@H](F)C6)nc4c3F)c12 [MRTX1133]
Weight on Day 0 ([2]; Day 0, at grouping, mean ± SD): 19.4 g and 19.4 ± 0.8 g
Weight change rate (%) ([2]; Day 16 vs Day 0): 15.1%
Weight on Day 14/16 ([2]; administration groups: 16th day after group administration, mean ± SD): 22.3 g and 22.3 ± 0.8 g
Animal survival ([2]; number of animals alive on day 0/number alive on day 16): 6/6
Tumor volume on Day 0 ([3]; Day 0, at grouping, mean ± SD): 57.4 ± 10.8 mm^3
TGI (%) ([3]; Day 14, MRTX1133 5 mg/kg IP QD, IN10018 25 mg/kg PO QD, TIGIT 3 mg/kg IP BIW): 63.2%
Tumor volume on Day 14 ([3]; Day 14 after group administration, MRTX1133 5 mg/kg IP QD, IN10018 25 mg/kg PO QD, TIGIT 3 mg/kg IP BIW, mean ± SD): 1067.8±302.1 mm^3
Tumor volume on Day 16 ([3]; Day 16 after group administration, MRTX1133 5 mg/kg IP QD, IN10018 25 mg/kg PO QD, TIGIT 3 mg/kg IP BIW, mean ± SD): 1672.1±548.1 mm^3
cell state under a microscope [1]: poor
cell state under a microscope (Mouse lung cancer KPL): poor
